Assay results from ChEMBL document CHEMBL4017441, “Mitigating the inhibition of human bile salt export pump by drugs: opportunities provided by physicochemical property modulation, in silico modeling, and structural modification” (Drug Metab Dispos, 2012).
*1 amine or outer side, *2 acyl side, *3 side chain or, on linkers, in order; H or OH if unused. Where a SMILES comes first, the peptide text is derived from it. Bridges are numbered along the chain shown (N, C = ends). [ ]: non-standard residue; d: D form. The star is where a group is joined. ξ: configuration not given here. ΔAla(Z-3-ureido) = NC(=O)N/C=C(\N)C(=O)O; X1 = N=C1NCCC(C(N[*:1])C(=O)[*:2])N1; ξβ3hOrn = NCCCC(N)CC(=O)*; Dap = NC[CH](N)C(=O)O

Biological target: Bile salt export pump (Homo sapiens, UniProt O95342)
Assay type: ADME

Structure (SMILES)	IC50 [µM]
CN(C)CCCN1c2ccccc2Sc2ccc(Cl)cc21 [CHLORPROMAZINE]	91
CC(C)(C(=O)c1cccnc1)c1cccnc1 [METYRAPONE]	229
CC(=O)NC[C@H]1CN(c2cc(F)c(C3=CCN(C(=O)CO)CC3)c(F)c2)C(=O)O1	> 1000
O=C1c2ccccc2CN2C(=O)c3ccccc3CN12 [DIFTALONE]	> 1000
Nc1nc2ccc(OC(F)(F)F)cc2s1 [RILUZOLE]	139
Clc1ccc2c(c1)C(N1CCNCC1)=Nc1ccccc1O2 [AMOXAPINE]	230
C[C@@](Cc1ccc(O)c(O)c1)(NN)C(=O)O [CARBIDOPA ANHYDROUS]	> 1000
O=[N+]([O-])c1cc([As](=O)(O)O)ccc1O [ROXARSONE]	> 1000
CCCCOc1ccc(C(=O)CCN2CCCCC2)cc1 [DYCLONINE]	275
CC(C)(C)c1cc(C(C)(C)C)c2oc(C(=O)O)cc(=O)c2c1 [TERBUCROMIL]	< 10
CC1=C(CC(=O)O)c2cc(F)ccc2/C1=C\c1ccc([S+](C)[O-])cc1 (centres undefined)	63.7
CN(C)C(=O)Oc1ccc[n+](C)c1 [PYRIDOSTIGMINE BROMIDE]	> 1000
Cc1ccc(Cl)c(Nc2ccccc2C(=O)O)c1Cl [MECLOFENAMIC ACID]	27.2
CC(=O)OCC[N+](C)(C)C [ACETYLCHOLINE]	> 1000
Clc1ccc(C(c2ccccc2Cl)C(Cl)Cl)cc1 (centres undefined) [MITOTANE]	< 10
CC(CCC(=O)O)C1CCC2C3C(=O)CC4CC(=O)CCC4(C)C3CC(=O)C12C (centres undefined)	202
COC(=O)C1=C(C)NC(C)=C(C(=O)OC(C)C)[C@@H]1c1cccc2nonc12 [(R)-ISRADIPINE]	< 10
CC(=O)NC[C@H]1CN(c2ccc(-n3cnc(Br)c3)c(F)c2)C(=O)O1	349
CC(=O)NCCCCCCNC(C)=O [HEXAMETHYLENEBISACETAMIDE]	> 1000
Cc1cc2cc(C(=O)NC3Cc4ccccc4N(C[C@@H](O)CO)C3=O)[nH]c2s1 (some centres undefined)	< 11
Cc1cc(=O)[nH]c(=S)[nH]1 [METHYLTHIOURACIL]	> 1000
CC12CC3CC(C)(C1)CC(N)(C3)C2 [MEMANTINE]	> 1000
CCc1cccc(C)c1CNC1=C2NC(C)=C(C)N2CC(C(N)=O)=C1	< 10
OCCN1CCN(CCCN2c3ccccc3Sc3ccc(C(F)(F)F)cc32)CC1 [FLUPHENAZINE]	25.8
CCCc1c2c(c(O)c3c(=O)cc(C(=O)O)oc13)CCCC2 [PROXICROMIL]	30 to 30.5

Structure (SMILES)	IC50 [µM]
C[C@@](O)(CS(=O)(=O)c1ccc(F)cc1)C(=O)Nc1ccc(C#N)c(C(F)(F)F)c1 [(S)-BICALUTAMIDE]	< 10
CC(N/C(=N\C#N)Nc1ccncc1)C(C)(C)C (centres undefined) [PINACIDIL ANHYDROUS]	161
Oc1cccc2cccnc12 [OXYQUINOLINE]	> 1000
CC(=O)CC(c1ccccc1)c1c(O)c2ccccc2oc1=O (centres undefined) [WARFARIN]	115
C[N+]1(C)[C@@H]2C[C@@H](OC(=O)C(O)(c3cccs3)c3cccs3)C[C@H]1[C@@H]1O[C@@H]12 [TIOTROPIUM]	> 1000
CN(C)/N=N/c1[nH]cnc1C(N)=O [DACARBAZINE]	> 1000
C[C@H](CN(C(=O)c1ccc(C#N)cc1)c1ccccn1)N1CCN(c2cccc3c2OCCO3)CC1 [LECOZOTAN]	< 10
CN=C(N)NC(=O)Nc1c(C)cccc1C [LIDAMIDINE]	> 1000
N[C@@H](Cc1ccc(N(CCCl)CCCl)cc1)C(=O)O	93.7
C[N+]1(C)CCCC(OC(=O)C(O)(c2ccccc2)c2ccccc2)C1 (centres undefined) [MEPENZOLATE BROMIDE]	> 1000
N=C(N)c1ccc(OCCCCCOc2ccc(C(=N)N)cc2)cc1 [PENTAMIDINE]	> 1000
CS(=O)(=O)c1ccc(C2=C(c3ccccc3)C(=O)OC2)cc1 [ROFECOXIB]	95.4
Cc1ccc2c(c1)c(-c1ccnc3c(C)cccc13)c(C)n2CC(=O)O	< 10
O=C1CC2(CCCC2)CC(=O)N1CCCCN1CCN(c2ncccn2)CC1 [BUSPIRONE]	59.6
C[C@H](CC(=O)Nc1c(Cl)ccc2nc(N3CC[C@H](N)C3)ccc12)c1ccccc1	< 27
CC(C)NCC(O)COc1ccc(CCOCC2CC2)cc1 (centres undefined) [BETAXOLOL]	> 1000
COc1nc(C)cnc1NS(=O)(=O)c1cccnc1-c1ccc(CC(C)C)cc1	19.5
COc1ccc2cc(C(C)CO)ccc2c1 (centres undefined)	97.6 to 98
Cc1c(C)c2c(c(C)c1O)CCC(C)(COc1ccc(CC3SC(=O)NC3=O)cc1)O2 (centres undefined) [TROGLITAZONE]	6.9
FC(F)(F)c1cccc(C2=CCN(CCc3ccc4ccccc4c3)CC2)c1 [XALIPRODEN]	117
S=P(N1CC1)(N1CC1)N1CC1 [THIOTEPA]	> 1000
CCC(=N\O)/C(C)=C/c1ccc(F)cc1 [A-079]	26.8
CC(CCc1ccccc1)NCC(O)c1ccc(O)c(C(N)=O)c1 (centres undefined) [LABETALOL]	649
C#C[C@]1(O)CC[C@H]2[C@@H]3CCC4=Cc5oncc5C[C@]4(C)[C@H]3CC[C@@]21C [DANAZOL]	< 10

Structure (SMILES)	IC50 [µM]
CC(C)NCC(O)c1ccc(O)c(O)c1 (centres undefined) [ISOPROTERENOL]	> 986
O=CN(O)[C@@H](CCCc1ncccn1)CS(=O)(=O)N1CCN(c2ccc(Cl)cn2)CC1	< 10
O=C(NCC1CCCCN1)c1cc(OCC(F)(F)F)ccc1OCC(F)(F)F (centres undefined) [FLECAINIDE]	218
N=C1NCCC(C2NC(=O)/C(=C/NC(N)=O)NC(=O)C(CNC(=O)CC(N)CCCN)NC(=O)C(CO)NC(=O)C(N)CNC2=O)N1 (stereo not drawn) (H-[Dap]S[Dap](ξβ3hOrn)[ΔAla(Z-3-ureido)][X1]; lactam 1-C; configuration not given here)	> 1000
O=C(c1ccc(-c2ccncc2)cc1)N1CCN(S(=O)(=O)c2cc3cc(Cl)ccc3[nH]2)CC1	< 10
CCOCCNS(=O)(=O)c1ccc(Nc2nccc(-c3cnc(C)n3C(C)C)n2)cc1	< 10
O=C(CCCN1CCC(O)(c2cccc(C(F)(F)F)c2)CC1)c1ccc(F)cc1 [TRIFLUPERIDOL]	19.7
O=c1ncn2nc(Sc3ccc(F)cc3F)ccc2c1-c1c(Cl)cccc1Cl [NEFLAMAPIMOD]	< 10
N[C@H]1C[C@@H]1c1ccccc1 [(+)-TRANYLCYPROMINE]	103
CO[C@H]1/C=C/O[C@@]2(C)Oc3c(C)c(O)c4c(c3C2=O)C2=NC3(CCN(CC(C)C)CC3)NC2=C(NC(=O)/C(C)=C\C=C\[C@H](C)[C@H](O)[C@@H](C)[C@@H](O)[C@H](C)[C@H](OC(C)=O)[C@H]1C)C4=O	< 10
CCCSc1nc(N)c2ncn([C@@H]3O[C@H](CO)[C@@H](O)[C@H]3O)c2n1	> 1000
O=C(O)c1cc(-c2ccccc2)nc2ccccc12 [CINCHOPHEN]	> 814
NS(=O)(=O)c1cc(C(=O)O)cc(N2CCCC2)c1Oc1ccccc1 [PIRETANIDE]	> 791
COc1cc(C(=O)N2CCOCC2)cc(OC)c1OC [TRIMETOZINE]	> 1000
CCCN(CCC)S(=O)(=O)c1ccc(C(=O)O)cc1 [PROBENECID]	587
CC(=O)c1ccc2c(c1)N(CCCN(C)C)c1ccccc1S2 [ACEPROMAZINE]	112
CC(C)(C)NCC(O)COc1cccc2c1CCC(=O)N2 (centres undefined) [CARTEOLOL]	> 1000
CN(C)C(=O)Oc1cccc([N+](C)(C)C)c1 [NEOSTIGMINE]	> 1000
COC(=O)N/N=C/c1c[n+]([O-])c2ccccc2[n+]1[O-] [CARBADOX]	> 940
O=c1ccc2ccccc2o1 [COUMARIN]	> 1000
CCN1C(=O)NC(c2ccccc2)C1=O (centres undefined) [ETHOTOIN]	> 792
CC1=C(C)C(=O)C(C(CCCCCC(=O)O)c2ccccc2)=C(C)C1=O (centres undefined) [SERATRODAST]	< 14.3
CCCCC(=O)N(Cc1ccc(-c2ccccc2-c2nnn[nH]2)cc1)[C@H](C(=O)O)C(C)C	31.1
O=C(O)c1cc2c(F)c(O)ccc2n1Cc1ccc(Cl)c(Cl)c1	19.3
CCCCC[C@H](O)/C=C/[C@H]1[C@H](O)CC(=O)[C@@H]1C/C=C\CCCC(=O)O [DINOPROSTONE]	> 1000

Structure (SMILES)	IC50 [µM]
NCCc1c[nH]cn1 [HISTAMINE]	> 1000
O=C(Oc1ccccc1C(=O)O)c1ccccc1O [SALSALATE]	> 1000
CN1CC(=O)N=C1NC(=O)Nc1cccc(Cl)c1 [FENOBAM ANHYDROUS]	> 1000
Cc1ccccc1C(OCCN(C)C)c1ccccc1 (centres undefined) [ORPHENADRINE]	> 1000
C[C@@H](O)[C@H]1C(=O)N2C(C(=O)O)=C(SCCN=CN)C[C@H]12 [IMIPENEM ANHYDROUS]	> 1000
Oc1ccc(CCNCCCCCCNCCc2ccccc2)cc1O [DOPEXAMINE]	> 1000
Cc1cc(-c2ccc(N3C[C@H](Cn4ccnn4)OC3=O)cc2F)on1	> 1000
CN1CCC(=C2c3ccccc3CC(=O)c3sccc32)CC1 [KETOTIFEN]	> 429
N#Cc1ccc(C(c2ccc(C#N)cc2)n2cncn2)cc1 [LETROZOLE]	225
COC(=O)C1=CCCN(C)C1 [ARECOLINE]	> 1000
O=CN(O)C(CCc1cccnc1)CS(=O)(=O)N1CCN(c2ccc(Cl)cn2)CC1 (centres undefined)	< 10
COc1ccc2c(c1OC)C(=O)OC2C1c2cc3c(cc2CCN1C)OCO3 (centres undefined)	65.6
COc1ccc(C(CN(C)C)C2(O)CCCCC2)cc1 (centres undefined) [VENLAFAXINE]	> 1000
CC(C)C(=O)Nc1ccc([N+](=O)[O-])c(C(F)(F)F)c1 [FLUTAMIDE]	60.8
CCC1(C)CC(=O)NC1=O (centres undefined) [ETHOSUXIMIDE]	> 1000
COC(=O)C1=C(C#N)NC(C)=C(C(=O)OC(C)C)C1c1cccc([N+](=O)[O-])c1 (centres undefined) [NILVADIPINE]	< 10
CCOC(=O)c1ccc(N)cc1 [BENZOCAINE]	> 1000
CCCc1c2nc(C(=O)O)cc(NC)c2cc2c(=O)cc(C(=O)O)oc12 [MINOCROMIL]	> 1000
C[C@H]1C[C@H]2[C@@H]3CCC4=CC(=O)C=C[C@]4(C)[C@@]3(Cl)[C@@H](O)C[C@]2(C)[C@@]1(O)C(=O)CO [BECLOMETHASONE]	23.7
CN1CCC(OC(c2ccccc2)c2ccccc2)CC1	509
CCCc1c2nc(C(=O)O)cc(C(F)(F)F)c2cc2c(=O)cc(C(=O)O)oc12	365
N[C@H](Cc1cc(I)c(Oc2cc(I)c(O)c(I)c2)c(I)c1)C(=O)O	< 10
CCc1nc(N)nc(N)c1-c1ccc(Cl)cc1 [PYRIMETHAMINE]	200
Cc1nc2c3c(ccn2c1CO)CCC(c1ccccc1)O3 (centres undefined)	< 10
